From US20060135624A1, “Natural compound useful for treating diabetes, its preparation and use” (JINGYU LIANG ET AL, priority 2002, published 2006)

Key:
rats = assay: General pharmacology in rats; details: rat, in vivo
Text: • 1. Guidelines for Studying New Drugs (Pharmacy, Pharmacology, Toxicology), Bureau of Drug Administration, the Ministry of Health of the People's Republic of China • 2. Chen Q I, Methodology for Studying Pharmacology of Chinese Medicine, People' Medical Publishing House, 1st Edition, 1993, 118-119 III. Studies on General Pharmacology • The effects of Sequoyitol on general physical signs and spontaneous movement of normal mice, on Pentobarbital hours of sleep of mice, and on respiratory movement, blood pressure, cardiac rhythm and electrocardiogram of rats were observed.

[1] = system: mouse hyperglycemia induced by Streptozocin; assay: Effect of Sequoyitol on mouse hyperglycemia induced by Streptozocin; assay type: in vivo, Kunming mice
Method: 1. Experimental Methods^[7,8] • Among 66 mice, 10 mice were randomly selected as normal group, and the residual mice were administrated with 160 mg/kg Streptozocin by vena caudalis injection, modeled according to methods of documents, and divided into 5 groups according to blood-sugar level, wherein 4 groups were perorally administrated with 25, 50 and 100 mg/kg of Sequoyitol and 75 mg/kg of phenformine according to 0.1 ml/10 g of body weight, respectively, and the normal group and modeling group were administrated with the same volum of distilled water. These administrations were conducted for continuous 18 days. The blood-sugar levels of the mice were separately measured at 6th and 12th day after the administration. At the 18th day, blood was collected by excising eyeballs, serum was separated, and the blood sugar level, insulin level, cholesterol content, triglyceride content, malonaldehyde content, and hepatocuprein activity of serum were measured; liver tissue was homogenated, and the malonaldehyde content and hepatocuprein activity of liver tissue were measured; and pancreatic gland was soaked in 10% formalin, embedded with paraffin, sliced, and dyed with HE.

normal mice = assay: Test of acute toxicity by oral administration; assay type: in vivo; details: 18.95 g/kg and 9.47 g/kg drenched one time; executed after 7 days
Text: 1) Experimental Method • 20 Normal mice (half male and half female) were divided into two groups (each group had 10 mice), and drenched with 18.95 g/kg and 9.47 g/kg one time, wherein the higher dose reached the maximum concentration and the maximum administration volume. The animals' responses were observed. The mice were executed after 7 days, and their organs were macroscopically observed.

[2] = system: mouse hyperglycemia induced by alloxan; assay: Effects of Sequoyitol on mouse hyperglycemia induced by alloxan; assay type: in vivo, Kunming mice
Method: 1. Experimental Methods^[1,2] • Among 60 mice, 10 mice were randomly selected as normal group, and the residual mice were administrated with 65 mg/kg alloxan by caudal vein injection, modeled according to the method of documents, and divided into 5 groups according to blood-sugar values, wherein 4 groups were perorally administrated with 25, 50 and 100 mg/kg of Sequoyitol and 75 mg/kg of phenformine according to 0.1 ml/10 g of body weight, respectively, and the normal group and modeling group were administrated with the same volum of distilled water, separately. These administrations were conducted for continuous 7 days. The blood-sugar levels were detected by glucose oxidase method. The pancreatic glands of the mice were soaked in 10% formalin, embedded with paraffin, sliced, and dyed with HE dye.

[3] = 25 and 50 mg/kg Sequoyitol groups, p.o. 18 days
[4] = Sequoyitol 100 mg/kg p.o. 18 days
[5] = Sequoyitol groups (25, 50, 100 mg/kg p.o. 18 days)

SMILES: COC1C(O)C(O)C(O)C(O)C1O (stereo not shown) [Sequoyitol, 5-O-methyl-myo-inositol]
- effect on blood pressure of rats (rats): did not significantly affect
- effect on cardiac rhythm of rats (rats): did not significantly affect
- effect on electrocardiogram of rats (rats): did not significantly affect
- effect on respiratory movement of rats (rats): did not significantly affect
- content of cholesterol in serum compared to the control group [1, 3]: decreased
- content of malonaldehyde in liver tissue compared to the control group [1, 3]: significantly decreased
- content of triglyceride in serum compared to the control group [1, 3]: significantly decreased
- serum insulin level compared to the control group ([1]; 50 and 100 mg/kg Sequoyitol groups, p.o. 18 days): significantly increased
- body weight of diabetes mice compared to the control group ([1]; 50 and 100 mg/kg Sequoyitol groups, p.o., since the 7th day): significantly increased
- serum insulin level compared to the control group ([1]; Sequoyitol 25 mg/kg p.o. 18 days): increased
- body weight of diabetes mice compared to the control group ([1]; Sequoyitol 25 mg/kg p.o., since the 11th day): increased
- blood-sugar level decreased compared to the control group ([1]; Sequoyitol 50 mg/kg p.o., 12th day): 121.4 mg/dL
- content of cholesterol in serum compared to the control group [1, 4]: significantly decreased
- content of malonaldehyde in liver tissue compared to the control group [1, 4]: highly significantly decreased
- content of triglyceride in serum compared to the control group [1, 4]: highly significantly decreased
- hyalinization of interstitial small vessels (histopathologic examination) [1, 4]: alleviated
- serum insulin level increased compared to the control group [1, 4]: 6.53 μlU/ml
- activity of hepatocuprein in serum compared to the control group [1, 5]: highly significantly increased
- inflammatory cell infiltration (histopathologic examination) [1, 5]: inhibited
- number of pancreatic islands and number of cells in pancreatic islands (histopathologic examination) compared to the model group [1, 5]: increased significantly
- main organs under macroscopic observation (normal mice): free of abnormality
- alloxan-induced hyperglycemia compared to the control group ([2]; Sequoyitol 25 mg/kg p.o. 7 days): alleviated
- blood-sugar level decreased compared to the control group ([2]; Sequoyitol 50 mg/kg p.o. 7 days): 195.2 mg/dL
- blood-sugar level decreased compared to the control group ([2]; Sequoyitol 100 mg/kg p.o. 7 days): 306.8 mg/dL
- number of pancreatic islands and number of islet cells (histopathologic examination) compared to the model group ([2]; Sequoyitol groups (25, 50, 100 mg/kg p.o. 7 days)): increased significantly
